Reference: patent US20220409629A1, “BENZODIAZEPINE DERIVATIVES FOR TREATING A RESPIRATORY SYNCYTIAL VIRUS (RSV) INFECTION” (priority 2019, published 2022)

What was measured:
[1] = Cell cytotoxicity CC50; type: cell-based; details: human; mean of at least two experiments
[2] = tested on: RSV A2; experiment: RSV plaque reduction assay; type: cell-based, respiratory syncytial virus (RSV); details: human respiratory syncytial virus, HepG2; Hep-G2 cells, RSV A2, mean of at least two experiments
Method: Compounds were subjected to RSV plaque reduction assays according to the following protocol.
Hep-G2 cells (ECACC, 85011430) were passaged in flasks and seeded in 24-well plates in DMEM containing antibiotics and supplemented with 10% FBS. During inoculation and subsequent incubation, cells were cultured in DMEM containing 2% FBS. 100 plaque forming unit/well of RSV (RSV A2 ECACC, 0709161v) was mixed with eight serial dilutions of compound. Subsequently, 100 μL of the virus/compound mixtures was added to confluent Hep-G2 cell monolayers. The cells and virus/compound mixtures were incubated at 37° C. in a humidified 5% CO2 incubator for 2 h prior to removal of the inoculum and addition of 1 mL of overlay (DMEM containing 2% FBS and 0.8% CMC) containing compound dilutions. The cells and were incubated at 37° C. in a humidified 5% CO2 incubator for 2 days.
Cells were washed with PBS before adding 75/25% v/v EtOH/MeOH, for 3 min. Fixative was removed and plates were washed with PBS. A pre-titrated amount of the primary antibody was added in 200 μL PBS/2% milk powder, and plates incubated for 90 min at 37° C. The plates were washed 3 times with PBS/0.05% Tween20 before addition of rabbit anti-goat horse radish peroxidase in 200 μL PBS/2% milk powder, and incubated for 1 h at 37° C. Following three wash steps with PBS/0.05% Tween20, 200 μL ready-to-use TrueBlue was added and plates were incubated at rt for 10-15 min before washing with water. After removal of water, plates were air-dried in the dark.
Plates were scanned and analysed using the Immunospot S6 Macro analyser, which is equipped with BioSpot analysis software for counting immunostained plaques (virospots). Plaque counts were used to calculate % infection relative to the mean of the plaque count in the virus control wells for RSV. The EC50 value was calculated as 50% reduction in signal, respectively, by interpolation of inhibition curves fitted with a 4-parameter nonlinear regression with a variable slope in Dotmatics. Plaque EC50 and cell toxicity CC50 values are a mean of at least two experiments and figures are rounded to whole units.

[3] = Liver microsomal stability, human; type: in vitro ADME; details: pH 7.4; human liver microsomes, 0.5 mg/mL protein, 1 μM compound, NADPH; >80% remaining at 45 min denoted >140; read-out: Liver Microsomal Stability: t1/2 (min); human
Method: (§1) Compounds were subjected to the following assays to investigate liver microsomal stability, permeability and plasma protein binding.
(§2) Pooled liver microsomes were purchased from a reputable commercial supplier and stored at −80° C. prior to use. Microsomes (final protein concentration 0.5 mg/mL), 0.1 M phosphate buffer pH 7.4 and test compound (final substrate concentration 1 μM; final DMSO concentration 0.25%) were pre-incubated at 37° C. prior to the addition of NADPH (final concentration 1 mM) to initiate the reaction. The final incubation volume was 50 μL. A control incubation was included for each compound tested where 0.1 M phosphate buffer pH 7.4 was added instead of NADPH (minus NADPH). Two control compounds were included with each species. All incubations were performed singularly for each test compound. Each compound was incubated for 0, 5, 15, 30 and 45 min. The control (minus NADPH) was incubated for 45 min only. The reactions were stopped by transferring incubate into acetonitrile at the appropriate time points, in a 1:3 ratio. The termination plates are centrifuged at 3,000 rpm for 20 min at 4° C. to precipitate the protein. Following protein precipitation, the sample supernatants were combined in cassettes of up to 4 compounds, internal standard added, and samples analysed by LC-MS/MS. From a plot of ln peak area ratio (compound peak area/internal standard peak area) against time, the gradient of the line was determined. Subsequently, half-life (t1/2) and intrinsic clearance (CLint) were calculated.

[4] = Liver microsomal stability, dog; type: in vitro ADME; details: pH 7.4; dog liver microsomes, 0.5 mg/mL protein, 1 μM compound, NADPH; >80% remaining at 45 min denoted >140; read-out: Liver Microsomal Stability: t1/2 (min); dog
Method: as §1, §2

[5] = Liver microsomal stability, rat; type: in vitro ADME; details: pH 7.4; rat liver microsomes, 0.5 mg/mL protein, 1 μM compound, NADPH; >80% remaining at 45 min denoted >140; read-out: Liver Microsomal Stability: t1/2 (min); rat
Method: as §1, §2

Structure (SMILES) | CC50 [1] | EC50 [2] | half-life [3] | half-life [4] | half-life [5]
O=C(N[C@H]1N=C(c2ccccc2)c2ccccc2NC1=O)c1cn(C2CCC(F)(F)CC2)nc1-c1ccc(NC2CC2)nc1F [Example 34, 3-[6-(Cyclopropylamino)-2-fluoropyridin-3-yl]-1-(4,4-difluorocyclohexyl)-N-[(3S)-2-oxo-5-phenyl-1,3-dihydro-1,4-benzodiazepin-3-yl]pyrazole-4-carboxamide] | > 25000 nM | 96 nM | 119 min | 85.8 min | 121 min
CCn1ncc(C(=O)N[C@H]2N=C(c3ccccc3)c3ccccc3NC2=O)c1-c1ncc(NC)cc1F [Example 38, 1-Ethyl-5-(3-fluoro-5-(methylamino)pyridin-2-yl)-N—((S)-2-oxo-5-phenyl-2,3-dihydro-1H-benzo[e][1,4]diazepin-3-yl)-1H-pyrazole-4-carboxamide] | > 25000 nM | 105 nM | 35.2 min | 48.6 min | 42 min
O=C(N[C@H]1N=C(c2ccccc2)c2ccccc2NC1=O)c1cnn(C2CCOCC2)c1-c1ccc(C2CC2)cc1F [Example 43, 5-(4-Cyclopropyl-2-fluorophenyl)-1-(oxan-4-yl)-N-[(3S)-2-oxo-5-phenyl-1,3-dihydro-1,4-benzodiazepin-3-yl]pyrazole-4-carboxamide] | > 25000 nM | 48 nM | 170 min | 161 min | 44.9 min
CCCNc1ccc(-c2nn(CC)cc2C(=O)N[C@H]2N=C(c3ccccc3)c3cccc(F)c3NC2=O)c(F)n1 [Example 28, 1-Ethyl-N-[(3S)-9-fluoro-2-oxo-5-phenyl-1,3-dihydro-1,4-benzodiazepin-3-yl]-3-[2-fluoro-6-(propylamino)pyridin-3-yl]pyrazole-4-carboxamide] | > 25000 nM | 39 nM | 41 min | 30.8 min | 22.7 min
O=C(N[C@H]1N=C(c2ccccc2)c2cccc(F)c2NC1=O)c1cnn(C2CCOCC2)c1-c1ccc(C2CC2)cc1F [Example 44, 5-(4-Cyclopropyl-2-fluorophenyl)-N-[(3S)-9-fluoro-2-oxo-5-phenyl-1,3-dihydro-1,4-benzodiazepin-3-yl]-1-(oxan-4-yl)pyrazole-4-carboxamide] | > 25000 nM | 48 nM | 201 min | 90 min | 55.9 min
CN1CCC(n2ncc(C(=O)N[C@H]3N=C(c4ccccc4)c4cccc(F)c4NC3=O)c2-c2ccc(NC3CC3)nc2F)CC1 [Example 57, 5-[6-(Cyclopropylamino)-2-fluoropyridin-3-yl]-N-[(3S)-9-fluoro-2-oxo-5-phenyl-1,3-dihydro-1,4-benzodiazepin-3-yl]-1-(1-methylpiperidin-4-yl)pyrazole-4-carboxamide] | > 9410 nM | 84 nM | 84.7 min | 175 min | 116 min
O=C(N[C@H]1N=C(c2ccccc2)c2ccccc2NC1=O)c1cnn(C2CC2)c1-c1ccc(NC2CC2)nc1F [Example 15, 1-Cyclopropyl-5-[6-(cyclopropylamino)-2-fluoropyridin-3-yl]-N-[(3S)-2-oxo-5-phenyl-1,3-dihydro-1,4-benzodiazepin-3-yl]pyrazole-4-carboxamide] | > 25000 nM | 51 nM | 72.3 min | 57.7 min | 69.8 min
CCn1ncc(C(=O)N[C@H]2N=C(c3ccccc3)c3ccccc3NC2=O)c1-c1ccc(NC2(C)CC2)nc1F [Example 6, 1-Ethyl-5-[2-fluoro-6-[(1-methylcyclopropyl)amino]pyridin-3-yl]-N-[(3S)-2-oxo-5-phenyl-1,3-dihydro-1,4-benzodiazepin-3-yl]pyrazole-4-carboxamide] | > 25000 nM | 32 nM | 23 min | 72.5 min | 31.5 min
CCn1ncc(C(=O)N[C@H]2N=C(c3ccccc3)c3ccccc3NC2=O)c1-c1ncc(NC2CC2)cc1F [Example 7, 5-[5-(Cyclopropylamino)-3-fluoropyridin-2-yl]-1-ethyl-N-[(3S)-2-oxo-5-phenyl-1,3-dihydro-1,4-benzodiazepin-3-yl]pyrazole-4-carboxamide] | > 25000 nM | 69 nM | 97 min | 85.8 min | 595 min
O=C(N[C@H]1N=C(c2ccccc2)c2cccc(F)c2NC1=O)c1cn(C2CCC(F)(F)CC2)nc1-c1ccc(NC2CC2)nc1F [Example 35, 3-[6-(Cyclopropylamino)-2-fluoropyridin-3-yl]-1-(4,4-difluorocyclohexyl)-N-[(3S)-9-fluoro-2-oxo-5-phenyl-1,3-dihydro-1,4-benzodiazepin-3-yl]pyrazole-4-carboxamide] | > 25000 nM | 60 nM | 164 min | 90.9 min | 181 min
O=C(N[C@H]1N=C(c2ccccc2)c2ccccc2NC1=O)c1cnn(C2COC2)c1-c1ccc(NC2CC2)nc1F [Example 18, 5-[6-(Cyclopropylamino)-2-fluoropyridin-3-yl]-1-(oxetan-3-yl)-N-[(3S)-2-oxo-5-phenyl-1,3-dihydro-1,4-benzodiazepin-3-yl]pyrazole-4-carboxamide] | > 25000 nM | 83 nM | 144 min | 149 min | 93.5 min
O=C(N[C@H]1N=C(c2ccccc2)c2cccc(F)c2NC1=O)c1cnn(C2CCOCC2)c1-c1cc(C2CC2)cnc1F [Example 51, 5-(5-Cyclopropyl-2-fluoropyridin-3-yl)-N-[(3S)-9-fluoro-2-oxo-5-phenyl-1,3-dihydro-1,4-benzodiazepin-3-yl]-1-(oxan-4-yl)pyrazole-4-carboxamide] | > 7790 nM | 53 nM | 171 min | 212 min | 92.8 min
O=C(N[C@H]1N=C(c2ccccc2)c2ccccc2NC1=O)c1cn(C2CCOCC2)nc1-c1ccc(NC2CC2)nc1F [Example 31, 3-[6-(Cyclopropylamino)-2-fluoropyridin-3-yl]-1-(oxan-4-yl)-N-[(3S)-2-oxo-5-phenyl-1,3-dihydro-1,4-benzodiazepin-3-yl]pyrazole-4-carboxamide] | > 25000 nM | 55 nM | 116 min | 65.7 min | 36.3 min
CCNc1ccc(-c2c(C(=O)N[C@H]3N=C(c4ccccc4)c4ccccc4NC3=O)c(C)nn2CC)c(F)n1 [Example 10, 1-Ethyl-5-[6-(ethylamino)-2-fluoropyridin-3-yl]-3-methyl-N-[(3S)-2-oxo-5-phenyl-1,3-dihydro-1,4-benzodiazepin-3-yl]pyrazole-4-carboxamide] | > 25000 nM | 89 nM | 48.1 min | 85.8 min | 20.2 min
CCn1ncc(C(=O)N[C@H]2N=C(c3ccccc3)c3cccc(F)c3NC2=O)c1-c1ncc(NC(C)C)cc1F [Example 17, 1-Ethyl-N-[(3S)-9-fluoro-2-oxo-5-phenyl-1,3-dihydro-1,4-benzodiazepin-3-yl]-5-[3-fluoro-5-(propan-2-ylamino)pyridin-2-yl]pyrazole-4-carboxamide] | > 25000 nM | 52 nM | 120 min | 68.9 min | 318 min
